Laboratory results published in patent US20260295119A1, “TARGET FOR COMBATTING THE FOREIGN BODY RESPONSE TO IMPLANTABLE BIOMATERIALS” (The Regents of the University of Colorado, a body corporate, priority 2023, published 2026).
No end group written: not given here.

Assays:
RAW 264.7 macrophages [1] = assay: IL-6 production by PAM3CSK4-stimulated RAW 264.7 macrophages; type: cell-based, mouse
Procedure: The ability of free MyD88 inhibitor T6167923 (Br) or T6167923 (SH) in solution to attenuate pro-inflammatory cytokine production by macrophages treated with PAM3CSK4 was assessed (FIG. 12A). When macrophages were treated with PAM3CSK4, IL-6 production increased (p<0.01) by 3-fold. […] Comparing the two inhibitors at 100 μM, T6167923 (Br) had attenuated IL-6 production by 89%, while T6167923 (SH) had attenuated IL-6 product by 58%.
Inhibitor Preparation and Synthesis: 200 μM stock solutions of T6167923 (Br) and T6167923 (SH) were prepared by first dissolving the inhibitors in 100 μL anhydrous DMSO, then adding dropwise to 9.9 mL culture medium and sterile filtering. The stock solution was then serially diluted in additional cell culture medium to make treatment concentrations. The inhibitor-PEG-peptide molecule was synthesized as follows. Bromoacetamido-dPEG12-TFP ester (36 mg) was added to 400 μL anhydrous DMSO and stirred in an amber vial to dissolve. T6167923 (SH) (17.65 mg) was dissolved in 100 μL anhydrous DMSO before being added dropwise to the amber vial. After 20 minutes of stirring, 1.5 mL of 50 mM sodium bicarbonate buffer, pH 8.4 was slowly added to the vial and the reaction was continued for an additional 20 minutes. Triglycine (8.6 mg) was combined with 2 mL of 50 mM sodium bicarbonate buffer, pH 8.4, then added dropwise to the reaction mixture in the amber vial with stirring. The reaction progressed overnight, then the product was purified by dialysis with 100-500 MWCO tubing against DI water. The reaction was monitored by consumption of sulfhydryls and primary amines. The product was sterile filtered and then lyophilized.
Cell Culture: RAW 264.7 cells were cultured in DMEM with 10% FBS and 1% penicillin/streptomycin at 37° C. and 5% CO2. Depending on the experiment, cells were seeded in tissue culture polystyrene (TCPS) well plates ([…]) or on hydrogels at 625,000 cells/cm^2 and allowed to adhere overnight. For transwell experiments, a transwell with a hydrogel was inserted into the well after the cells were allowed to adhere. For the (T6167923 (Br), T6167923 (SH)), and inhibitor-PEG-peptide studies, cells were treated with inhibitor for a specified period of time. To do this, medium was aspirated from the well and replaced with inhibitor-containing DMEM. Control conditions included cells only and cells plus 1% anhydrous DMSO by volume. After a specified period of culture time, PAM3CSK4 was added at 50 ng/ml and the cells were cultured for a prescribed period of time. Medium was collected and flash frozen for ELISA. […]
(§1) Protein Assays: Cell culture medium was thawed on ice. IL-6 in the culture media was quantified using an ELISA. MMP-12 production in culture media was measured per kit instructions. […]

human MMP-12 = biological target: T1, human MMP-12 (Homo sapiens, UniProt P39900); assay: Cleavage of hydrogel-tethered tryptophan peptides by MMP-12; type: biochemical; settings: role: substrate; 5 nM activated MMP-12, 285 nm; p<0.001
T1 construct: purchased R&D Systems
T1 sequence (P39900 106-470): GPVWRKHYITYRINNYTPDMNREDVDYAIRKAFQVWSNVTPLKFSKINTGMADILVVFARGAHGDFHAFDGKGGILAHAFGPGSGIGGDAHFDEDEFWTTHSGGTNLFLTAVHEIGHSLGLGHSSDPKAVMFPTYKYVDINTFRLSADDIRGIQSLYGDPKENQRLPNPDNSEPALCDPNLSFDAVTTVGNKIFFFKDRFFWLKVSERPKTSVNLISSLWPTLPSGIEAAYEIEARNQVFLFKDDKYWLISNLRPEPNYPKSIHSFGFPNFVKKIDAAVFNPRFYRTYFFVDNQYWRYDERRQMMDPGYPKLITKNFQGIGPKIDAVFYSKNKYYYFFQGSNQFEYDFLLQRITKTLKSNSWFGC
Procedure: To test the cleavability of the chosen peptides by MMP-12, the sequences were modified with tryptophan residues, tethered to PEG hydrogels at 5 μM concentration, and exposed to 5 nM MMP-12 in buffer. First, the maleimide of acrylate-PEG-maleimide (MW 3,400 g/mol) was reacted with the cysteine residue contained in the peptide sequence to create a PEG-conjugated peptide with tryptophan at one end and an acrylate group at the other. This product was then combined with PEGDA monomer and photoinitiator in PBS and photopolymerized, yielding a gel (FIG. 14C). The release of the tryptophan-containing cleaved portion of the sequence was monitored by measuring buffer absorbance at 285 nm over time (FIG. 14D).
For the release studies, acrylate-PEG-maleimide (6.8 mg) was reacted with peptide (GWGPLGLEEACG [SEQ ID NO. 2] or GWGPLGLARCG [SEQ ID NO. 1], 5 mM) in 500 μL dry DMF for 30 minutes with stirring. PEGDA (100 mg) was then added to the reaction mixture and vortexed to combine. Irgacure 2959 was added as photoinitiator in dry DMF (6 mg/mL). This precursor solution was gelled between glass slides with a 1 mm spacer under UV light for 45 minutes. The resulting 20 wt % hydrogel was soaked in ultrapure water to rinse away DMF followed by additional rinses in TCNB assay buffer (50 mM Tris, 10 mM CaCl2, 150 mM NaCl, 0.05% (w/v) Brij-35, pH 7.5).
Tryptophan Release: Peptide-conjugated hydrogels swollen in TCNB assay buffer were punched to 5 mm diameter and placed in wells of a 96-well clear, flat bottom well plate (n=4 gels for each peptide). Human MMP-12 was reconstituted in 10 mM MES, 0.1 M NaCl, 100 μM CaCl2, 0.1% (w/v) CHAPS, 1 μM ZnSO4, 0.1% (w/v) PEG, pH 6.0 buffer to 0.25 mg/mL. It was then diluted to 50 μg/mL with TCNB assay buffer and activated by adding 100 mM APMA in DMSO to 1 mM final concentration and incubating at 37° C. for 24 hours. […] At each time point, 2 μL supernatant was removed from each well and spectrophotometrically measured on the Nanodrop at 285 nm. […]

RAW 264.7 macrophages [2] = assay: MMP-12 secretion by RAW 264.7 macrophages (ELISA); type: cell-based, mouse; settings: PAM3CSK4 50 ng/ml, 8 h
Procedure: RAW 264.7 macrophages were cultured in serum-free (1% ITS) media (FIG. 14A) or serum-containing medium (10% FBS) (FIG. 14(B)) and treated or not with PAM3CSK4 (50 ng/ml), then their secretion of MMP-12 over the 8-hour period was evaluated by ELISA. Macrophages with (p<0.01) and without (p<0.001) PAM3CSK4 stimulation secreted MMP-12 when cultured in the serum-free media, with average levels of 245 and 556 μg/mL, respectively. In serum-containing media, the production of MMP-12 was on average 178 μg MMP-12/mL (p<0.01 relative to blank) in unstimulated cells. […] Unstimulated cells in the same media secreted MMP-12. MMP-12 production by the cells was higher in ITS media than in FBS media.
Cell Culture: RAW 264.7 cells were cultured in DMEM with 10% FBS and 1% penicillin/streptomycin at 37° C. and 5% CO2. Depending on the experiment, cells were seeded in tissue culture polystyrene (TCPS) well plates ([…]) or on hydrogels at 625,000 cells/cm^2 and allowed to adhere overnight. For transwell experiments, a transwell with a hydrogel was inserted into the well after the cells were allowed to adhere. […]
as §1

C[C@H](NC(=O)N1CCN(S(=O)(=O)c2cccc(Br)c2)CC1)c1cccs1 [T6167923 (Br)]
attenuation of IL-6 production (RAW 264.7 macrophages [1]; 100 μM inhibitor, PAM3CSK4 50 ng/ml): 89% | dose dependence of IL-6 attenuation (RAW 264.7 macrophages [1]; PAM3CSK4 50 ng/ml): a dose-dependent response was observed | inhibitor concentrations at which IL-6 was significantly lower than untreated PAM3CSK4-stimulated cells (RAW 264.7 macrophages [1]; PAM3CSK4 50 ng/ml): 50 to 200 µM

GWGPLGLARCG [SEQ ID NO. 1]: MMP-12 cleavable peptide, tryptophan modified, tethered to PEG hydrogel (also: tethered to PEG hydrogel)
cleavage by MMP-12 (tryptophan cumulative release) (human MMP-12): cleaved by the MMP-12 | rate of cleavage by MMP-12 relative to the longer peptide (SEQ ID NO. 2) (human MMP-12): slightly faster rate

GWGPLGLEEACG [SEQ ID NO. 2]: MMP-12 cleavable peptide, tryptophan modified, tethered to PEG hydrogel (also: tethered to PEG hydrogel)
cleavage by MMP-12 (tryptophan cumulative release) (human MMP-12): cleaved by the MMP-12

PAM3CSK4
MMP-12 levels compared to blank (no cells) (RAW 264.7 macrophages [2]; serum-containing medium (10% FBS)): not statistically different to the blank | MMP-12 secretion (RAW 264.7 macrophages [2]; serum-free (1% ITS) media, p<0.01 vs blank): 245 µg/mL | increase in IL-6 production (RAW 264.7 macrophages [1]; PAM3CSK4 treatment vs unstimulated, no inhibitor, p<0.01): 3 -fold
